Data set [1] has as its system HepG2 cells. Put plainly: Cell viability (PI), IC50, control HepG2 cells. The data set is classed as cell-based. The note with it: Homo sapiens; control non-transduced HepG2; 24 h; unit inferred, tested range in µM; read-out: IC50 (cell viability), C.
Data set [2] concerns HepG2 cells transduced with AdCYP2E1. Put plainly: Cell viability (PI), IC50, AdCYP2E1-HepG2. The data set is classed as cell-based. The note with it: Homo sapiens, unit inferred, tested range in µM. The procedure: (§1) For subculturing purposes, cells were detached by treatment with 0.25% trypsin/0.02% EDTA at 37 °C. For the adenovirus infection studies, cells were seeded in 96-well plates (5000 cells/well) and adenovirus-containing medium was added 48 h later. After 24 h, cells were transferred to the adenovirus-free medium and cultured for an additional 24-h period prior to the incubations performed with the test chemicals. To optimise the expression of the functional enzymes in the adenovirus-transduced HepG2 (Ad-HepG2) cells, different doses (MOI, multiplicity of infection, defined as plaque formation units per cell) of each adenovirus were tested.
(§2) The drugs included in the study were chosen based on previous information about their hepatotoxicity. Information on the potential mechanisms implicated in the toxicity of each compound and the major enzymes involved in their metabolism is summarised in Table 1. HepG2 or Ad-HepG2 (48 h post-infection) cells were exposed for 24 h to eight concentrations of the tested compounds. Each experimental condition was repeated independently three times (with three wells measured each time). The stock solutions of compounds were prepared in DMSO and were conveniently diluted in the culture medium to obtain the desired final concentrations. The final DMSO concentration in the culture medium was 0.5% (v/v), and the control cultures were treated with the same amount of solvent.
(§3) Following treatments, cells were simultaneously loaded with several fluorescent dyes to measure multiple biomarkers of cell toxicity. […] Information about the probes is summarised in Supplementary Table S2.
(§4) After incubating with dyes, cells were imaged by the Scan^R system (Olympus, Germany). Dyes were excited, and their fluorescence was monitored at the excitation and emission wavelengths at appropriate filter settings. The collected images were analysed using the Scan^R analysis module, which allows the simultaneous quantification of subcellular structures that are stained by different fluorescent probes.

Data set [3] has the same test system. Conditions: human, 24 h. The procedure: as §1, §2, §3, §4
For data set [4], the system named is HepG2 cells transduced with AdGSTM1. Conditions: human, 24 h. On the procedure:
as §1, §2, §3, §4

For data set [5], the system named is HepG2 cells. The note with it: human, 24 h. The procedure: as §1, §2, §3, §4
In data set [6] the test system is HepG2 cells co-transduced with AdCYP2E1 and AdCYP1A2. In words: HCS hepatotoxicity assay (MEC, TR), AdCYP2E1 + AdCYP1A2 HepG2. The data set is classed as cell-based, human. The note with it: 24 h; for MEC Apoptosis / MEC Calcium / MEC MMP / MEC Mitochondrial superoxide / MEC ROS: unit inferred, tested range in mM. On the procedure: as §1, §2, §3, §4
Data set [7] concerns HepG2 cells co-transduced with AdCYP2E1, CYP1A2 and AdGSTM1. In words: HCS hepatotoxicity assay (MEC, TR), AdCYP2E1 + AdCYP1A2 + AdGSTM1 HepG2. Conditions: 24 h; for MEC Apoptosis / MEC Calcium / MEC MMP / MEC Mitochondrial superoxide / MEC ROS: unit inferred, tested range in mM. The format is cell-based, human. The procedure:
as §1, §2, §3, §4

For data set [8] the following is noted: cited from earlier work; for Bioactivation / Enzyme: major enzyme(s) involved in the bioactivation (denoted as *) or detoxification of the drug: previous information; for Toxicity (mechanisms of toxicity): ref Ashrafian et al. [2007], Donato et al. [2009], Fromenty and Pessayre [1997], Rolo et al. [2000], Tolosa et al. [2012b]; for DILI category: ref Gustafsson et al. ([2014]).

Data set [9] concerns HepG2 cells co-transduced with AdCYP2E1 and AdGSTM1. In words: HCS hepatotoxicity assay (MEC, TR), AdCYP2E1 + AdGSTM1 HepG2. The format is cell-based, human. The note with it: CYP2E1-10X + GSTM1, 24 h. The procedure: as §1, §2, §3, §4
The test system of data set [10] is HepG2 cells transduced with AdCYP2C9. Put plainly: Cell viability (PI), IC50, AdCYP2C9-HepG2. Conditions: Homo sapiens, unit inferred, tested range in µM. The format is cell-based.
For data set [11], the system named is HepG2 cells transduced with AdCYP2B6. In words: Cell viability (PI), IC50, AdCYP2B6-HepG2. The data set is classed as cell-based. The note with it: Homo sapiens, unit inferred, tested range in µM. The procedure:
as §1, §2, §3, §4

For data set [12] the test system is unchanged. In words: HCS hepatotoxicity assay (MEC, TR), AdCYP2B6-HepG2. The format is cell-based, human. The note with it: 24 h, unit inferred, tested range in mM. On the procedure: as §1
The drugs included in the study were chosen based on previous information about their hepatotoxicity. […] Each experimental condition was repeated independently three times (with three wells measured each time). […]
as §4

The conditions of data set [13]: ref Atienzar et al. ([2014]), Garside et al. ([2014]), Tolosa et al. ([2012b]); cited from earlier work.
A further data set relates to Ad-HepG2 and HepG2 cells. The format is cell-based, human. The source says:
Finally, we explored the toxicity of the amoxycillin/clavulanate combination, one of the most commonly implicated agents in severe idiosyncratic liver injury. Unlike other studied drugs, the hepatotoxicity of amoxycillin/clavulanate has not been related to CYP metabolism.

Where [14] appears, read: ADV CYP2E1 x1, 24 h, read-out: IC50 (cell viability), ADV dose x1.
Where [15] appears, read: ADV CYP2E1 x4, 24 h, read-out: IC50 (cell viability), ADV dose x4.
The mark [16] stands for this setting: ADV CYP2E1 x10, 24 h, read-out: IC50 (cell viability), ADV dose x10.
Setting [17] is: unit inferred, tested range in mM.
Where [18] appears, read: unit not given, tested range in mM.

Read-outs that look alike come from different tables or passages of the source. Marks after values point to notes of the source that are not given here.

The text below walks through data of paper PMC5773651, “Customised in vitro model to detect human metabolism-dependent idiosyncratic drug-induced liver injury” (Archives of Toxicology, 2017).

What is called IC50 is the point on the concentration scale where inhibition reaches its midpoint. A word on the Cmax: it is the peak of the concentration-time curve.

Take `CC(=O)Nc1ccc(O)cc1` [Acetaminophen]: the IC50 with HepG2 cells [1] was more than 15000 µM; in data set [2] (setting [14]), more than 15000 µM; in [2] (setting [15]) it was more than 15000 µM; in data set [2] (setting [16]) it was 10600 µM. For the same molecule, the “concentrations needed to significantly alter ROS generation and calcium levels” value in data set [3] lay in the range of 4000 to 6000 µM. Besides, the MEC Apoptosis worked out at 4 µM in data set [4]; 4 µM in the data set with HepG2 cells [5]; 1 mM in data set [6] (CYP2E1-1X + CYP1A2-1X); 0.5 mM in [6] (CYP2E1-4X + CYP1A2-4X); 4 mM in data set [7] (CYP2E1-1X + CYP1A2-1X + GSTM1); 1 mM in data set [7] (CYP2E1-4X + CYP1A2-4X + GSTM1). In addition, the “MEC Calcium” value was determined as 10 in data set [4]; 6 with HepG2 cells [5]; 6 mM in [6] (CYP2E1-1X + CYP1A2-1X); 0.5 mM in [6] (CYP2E1-4X + CYP1A2-4X); 15 mM in data set [7] (CYP2E1-1X + CYP1A2-1X + GSTM1); 6 mM in data set [7] (CYP2E1-4X + CYP1A2-4X + GSTM1). The “MEC MMP” value turned out to be 15 in [4]; 15 in the data set on HepG2 cells [5]; 10 mM in [6] (CYP2E1-1X + CYP1A2-1X); 6 mM in data set [6] (CYP2E1-4X + CYP1A2-4X); 15 mM in data set [7] (CYP2E1-1X + CYP1A2-1X + GSTM1); 10 mM in data set [7] (CYP2E1-4X + CYP1A2-4X + GSTM1). In addition, the “MEC Mitochondrial superoxide” value was 6 in data set [4]; 4 with HepG2 cells [5]; 1 mM in data set [6] (CYP2E1-1X + CYP1A2-1X); 0.5 mM in data set [6] (CYP2E1-4X + CYP1A2-4X); 6 mM in data set [7] (CYP2E1-1X + CYP1A2-1X + GSTM1); 4 mM in [7] (CYP2E1-4X + CYP1A2-4X + GSTM1). Also, the “MEC ROS” value in data set [4] was found to be 15; in the data set with HepG2 cells [5], 10; in [6] (CYP2E1-1X + CYP1A2-1X), 6 mM; in data set [6] (CYP2E1-4X + CYP1A2-4X) it was 0.5 mM; in data set [7] (CYP2E1-1X + CYP1A2-1X + GSTM1), 15 mM; in data set [7] (CYP2E1-4X + CYP1A2-4X + GSTM1), 6 mM. Further, the TR in data set [4] worked out at 3.5; in the data set on HepG2 cells [5] it was 3.5; in [6] (CYP2E1-4X + CYP1A2-4X, TR = 100 x Cmax/lowest MEC), 27.8; in data set [7] (CYP2E1-1X + CYP1A2-1X + GSTM1, TR = 100 x Cmax/lowest MEC), 3.5. In addition, in [6] (cells co-transduced with AdCYP2E1 and AdCYP1A2, intermediate doses of adenoviruses), the “concentration that induced significant changes in the ROS generation and calcium levels” value was found to be 500 µM. Moreover, the Bioactivation entry in data set [8] was “Yes”. Besides, the “Enzyme: major enzyme(s) involved in the bioactivation (denoted as *) or detoxification of the drug” value (“Enzyme: major enzyme(s) involved” for short) in [8] is reported as “CYP2E1* (CYP1A2*, CYP3A4*) GST”. Further, the “Toxicity (mechanisms of toxicity)” value in data set [8] was “OS, AP”. Besides, the DILI category result in data set [8] was “DILI reports”.

Turning to `NNC(=O)c1ccncc1` [Isoniazid], the concentration for half-maximal inhibition (IC50) amounted to 61500 µM in the data set with HepG2 cells [1], 52900 µM in data set [2] (setting [14]), 44500 µM in data set [2] (setting [15]) and 46600 µM in [2] (setting [16]). Also, the “MEC MMP” value (in data set [3]; in data set [4]; in the data set on HepG2 cells [5]; in [9] (setting [18])) was more than 50 each time. The values for the MEC Apoptosis (in data set [4]; in the data set on HepG2 cells [5]; in data set [9] (setting [18])) were 30 µM, 30 µM and 30, respectively. The “MEC Calcium” value was more than 50 in data set [4], 30 in the data set on HepG2 cells [5] and 20 mM in data set [9] (setting [17]). In addition, the “MEC Mitochondrial superoxide” value is more than 50 in data set [4], 30 in the data set on HepG2 cells [5] and 30 mM in data set [9] (setting [17]). Moreover, the “MEC ROS” value in data set [4] was more than 50; in the data set with HepG2 cells [5] it was more than 50; in data set [9] (setting [17]), more than 50 mM. The TR is 0.25 in data set [4], 0.25 in the data set with HepG2 cells [5] and 0.38 in [9] (TR = 100 x Cmax/lowest MEC). Also, in data set [8], the Bioactivation entry was “Yes”. For the same molecule, the “Enzyme: major enzyme(s) involved” value in [8] was “CYP2E1*, GSTM1, NAT2”. Besides, the “Toxicity (mechanisms of toxicity)” value in data set [8] was “MI, OS, AP”. Besides, the DILI category result in data set [8] was “Severe”.

`CCCC(CCC)C(=O)O` [Valproic acid]: the 50% inhibitory concentration (IC50) in the data set on HepG2 cells [1] was 14800 µM; in data set [10] (ADV CYP2C99 x1, 24 h, read-out: IC50 (cell viability), ADV dose x1) it was 14400 µM; in data set [10] (ADV CYP2C99 x4, 24 h, read-out: IC50 (cell viability), ADV dose x4), 16000 µM; in [10] (ADV CYP2C99 x10, 24 h, read-out: IC50 (cell viability), ADV dose x10), 10100 µM; in data set [11] (ADV CYP2B6 x1, 24 h, read-out: IC50 (cell viability), ADV dose x1) it was 13300 µM; in data set [11] (ADV CYP2B6 x4, 24 h, read-out: IC50 (cell viability), ADV dose x4) it was 8600 µM. Moreover, the 50% inhibitory concentration (IC50) in data set [11] (ADV CYP2B6 x10, 24 h, read-out: IC50 (cell viability), ADV dose x10) came out at 8700 µM. Also, in the data set on HepG2 cells [5], the “MEC Lipids” value is given as 6. Besides, the results for the MEC ROS in [12] (CYP2B6-4X) and in data set [12] (CYP2B6-10X) were 10 mM and 8 mM, respectively. In addition, the maximum concentration (Cmax) in data set [13] was 166 µM. Further, in [8], the Bioactivation result was “Yes”. The “Enzyme: major enzyme(s) involved” value in data set [8] is “CYP2B6*, CYP2C9* (CYP2E1*, CYP2A6*)”. Also, the “Toxicity (mechanisms of toxicity)” value in data set [8] is recorded as “MI, OS, ST”.

Regarding Amoxicillin/clavulanate, the ROS production entry in the data set on Ad-HepG2 and HepG2 cells is reported as “significant increase”.
